One compound from patent US9713591B2, “Composition of matter comprising liposomes embedded in a polymeric matrix and methods of using same” (Yissum Research Development Company of the Hebrew …, priority 2008, dated 2017) can be followed below.

Several values for one entry are separate records, joined by “and”; a condition that tells them apart may be missing. Equal values may be shown once.

A short description of series [1]: Free (non liposomal) and total bupivacaine determination by HPLC (% free BUP in the preparation). Type of series: physicochemical. As to conditions: Example 2 samples. As for the experimental part:
Bupivacaine determination: free (non liposomal) or total (liposomal plus free) concentration of bupivacaine was measured by HPLC (Grant et al Parm. Res., 2001 18, N3, 336-343; Anesthesiology, 2004, 101, 133-137).
Drug/lipid ratio determination for hydrogel beads: The washed beads were injected through a 25G×⅝″ (0.5 mm×16 mm) syringe needle to have homogenous dispersion and were diluted ×10 with saline: • 50 μl and 100 μl used for PL. determination. • 100 μl centrifuged 10′ 2000 g at 4° C. and the supernatant diluted ×10 with isopropanol (IPA) to determine free bupivacaine. • 100 or 200 μl heated in boiling water, than centrifuged 10′ at 2000 g. The supernatant was diluted ×10 with IPA to determine total bupivacaine by HPLC.
All samples for bupivacaine determination were centrifuged for 2 min. at 5000 g (using Eppendof centrifuge) after dilution in IPA. The upper phase was removed and analyzed by HPLC.
All liposomal formulations were analyzed for free non liposomal BUP and total BUP before the in vivo experiment followed by their concentration to reach the level of 2% (w/w) BUP (for liposome formulations #1, 2, 3, 5, 6, 8) and to 1% (w/w BUP for liposome formulations #4 & 7). BUP was loaded into the liposomes either by active loading (CA or AS gradient) or by passive loading as described in Table 8.
Free Bup (Non Liposomal Bup) Determination: […]

A further series has as its system male Swiss-Webster mice. Briefly: Analgesic efficacy in mouse model: electrical stimulation of abdominal skin, vocalization threshold, analgesia score and duration. Type of series: in vivo. Further details: key to analgesia score 150′ / analgesia score 5′ / analgesia score 30′ / analgesia score 60′ / analgesia score 75′ / analgesia score 90′ / analgesia score 105′ / analgesia score 120′ / analgesia score 135′: If the anesthesia was complete the numeric value given was 1.0; when analgesia was partial (incomplete) it received the numeric value of 10.0 in the Table 1 and in other Tables a score of 0.5; for no anesthesia the numeric score was 0. The source says:
Analgesic efficacy in male Swiss Webster mouse model: Testing for analgesia was done by electrical stimulation of mice skin as described elsewhere (G. J. Grant et al, Pharmaceutical Research, 18, no 3, 336-343, 2001). Pain as electrical stimulation at the desired intensity was inflicted to the skin of shaved mice abdomen. The current generator (model S48, Grass Instruments (W. Warwick, R.I. USA) was used. Mice (male Swiss-Webster, 26±3 gr (n=7 per group) were used. The mice were shaved the hair overlying the abdomen and tested prior to injection to determine the Individual vocalization threshold of each mice. Than the mice were injected with (0.3-0.4 ml of one of the following: free bupivacaine, or LMVV-BUP or various LMVV entrapped in Ca-alginate or chitosan-oxalate cross linked hydrogels through 30G needle. The analgesia duration was than followed as specified in the experiment itself. All experiments were approved and ratified by the HUJI ethic committee.
Analysis of the in vivo mice analgesia: A numerical score to the spreadsheet was introduced for the evaluation of the analgesic effect of various liposome preparations performance in vivo: For each time period (e.g. 4 hrs, 8 hrs etc) a numeric value to each mouse in the experiment was given. If the anesthesia was complete the numeric value given was 1.0; when analgesia was partial (incomplete) it received the numeric value of 10.0 in the Table 1 and in other Tables a score of 0.5 and for no anesthesia the numeric score was 0. The mean for each subgroup was calculated separately (i.e. 1% 300 μl, 2%[…]).
Testing for analgesia was done by electrical stimulation of the skin directly overlying the abdomen at the site of injection using a current generator (model S48, Grass Instruments) as described in Grant et al 2001. (G. J. Grant et al, pharmaceutical research, vol 18, no 3, 336-343, 2001), and in Methods above.
Mice (male Swiss-Webster 26±3 gr) were tested prior to injection to determine the vocalization threshold than were injected with liposomal BUP or free BUP than followed by determination of analgesia duration (The duration of the main in vivo screening study was 2 days and started after a preliminary study using two different injection volumes of formulation #4 (referred to as the PILOT in Table 9A) was performed. […]
Testing for analgesia was performed by electrical stimulation of mice skin as described elsewhere (G. J. Grant et al, Pharmaceutical Research, 18, no 3, 336-343, 2001). Pain by electrical stimulation at the desired intensity was applied to the skin of shaved mice abdomen. The current generator (model S48, Grass Instruments (W. Warwick, R.I. USA) was used. Mice (male Swiss-Webster, 26±3 gr (n=8 per group) were used. The mice were shaved the hair overlying the abdomen and tested prior to injection to determine the Individual vocalization threshold of each mice. Than the mice were injected through 30G needle with 0.25 ml of one of the following formulation: • 1—Alginate beads containing LMVV-BUP (010609), were stored at 4 c for 2 months in 0.5% bup, PH=5.5 (see B3). The external solution of the beads were removed before injection without washing them. • 2—Alginate beads containing LMVV-BUP (010609), were stored at 4 c for 2 months in 2% bup, PH=5.5 (see B3). The external solution of the beads were removed and the beads washed (2.5 ml saline×5) before injection. • 3—Alginate beads containing LMVV-BUP (010609), were stored at 4 c for 2 months in 1% bup, PH=5.5 (see B3). The external solution of the beads were removed before injection without washing them. • 4—Alginate beads containing LMVV-BUP (010609), were stored at 4 c for 2 months in saline, PH=5.5 (see B3). The external solution of the beads were removed before injection without washing them. • 5—LMVV-BUP (010609) were stored at 4 c for 2 months in saline PH=5.5. • 6—BLANK: Aginate beads containing LMVV without bup, were stored at 4 c for 2 months in saline PH=5.5. […]

Take `CCCCN1CCCCC1C(=O)Nc1c(C)cccc1C` (stereo not drawn) [compound 9]: the “Free bup concentration(%) after injection through G31 syringe needle” value in series [1] (analyzed after the experiment was finished) and in series [1] (analyzed before starting the experiment) was 0.25% in each case. In the series with male Swiss-Webster mice (Example 2, mice), the “analgesia duration, comparison of Example 2 formulations” value is listed as “shortest analgesia duration”. The “analgesia score 5′” value with male Swiss-Webster mice (Example 2 group 9, per mouse, 0.25% bup 300 ul, 5 min) worked out at 1. The “analgesia score 30′” value in the series on male Swiss-Webster mice (Example 2 group 9, per mouse, 0.25% bup 300 ul, 30 min) turned out to be 1. Moreover, the “analgesia score 60′” value in the series with male Swiss-Webster mice (Example 2 group 9, per mouse, 0.25% bup 300 ul, 60 min) came out at 1. The “analgesia score 75′” value in the series with male Swiss-Webster mice (Example 2 group 9, per mouse, 0.25% bup 300 ul, 75 min, listed as standard free bupivacaine) was 1 (3×) and 0 (2×). Further, in the series with male Swiss-Webster mice (Example 2 group 9, per mouse, 0.25% bup 300 ul, 90 min, listed as standard free bupivacaine), the “analgesia score 90′” value is 1 (3×) and 0 (2×). Besides, in the series with male Swiss-Webster mice (Example 2 group 9, per mouse, 0.25% bup 300 ul, 105 min, listed as standard free bupivacaine), the “analgesia score 105′” value was 1 and 0 (2×). Further, the “analgesia score 120′” value in the series with male Swiss-Webster mice (Example 2 group 9, per mouse, 0.25% bup 300 ul, 120 min, listed as standard free bupivacaine) is 0.5 and 0 (2×). Also, in the series with male Swiss-Webster mice (Example 2 group 9, per mouse, 0.25% bup 300 ul, 135 min), the “analgesia score 135′” value was 0. Moreover, in the series with male Swiss-Webster mice (Example 2 group 9, per mouse, 0.25% bup 300 ul, 150 min), the “analgesia score 150′” value is given as 0.
